Assay results as given in ChEMBL document CHEMBL5230136, “A review: Biologically active 3,4-heterocycle-fused coumarins” (Eur J Med Chem, 2021).
pIC50: −log10 of the molar value. In brackets after ≈: the same amount, converted by molar mass.

Columns and labels:
[1] = system: Xanthomonas citri pv. malvacearum; experiment: Antibacterial activity against Xanthomonas citri pv. malvacearum assessed as reduction in bacterial growth; assay type: functional; set-up: concentration or dose not given beside the values
[2] = system: Fusarium verticillioides; experiment: Antifungal activity against Fusarium verticillioides assessed as reduction in fungal growth; assay type: functional; set-up: concentration or dose not given beside the values
[3] = system: Rhizoctonia solani; experiment: Antifungal activity against Rhizoctonia solani assessed as reduction in fungal growth; assay type: functional; set-up: concentration or dose not given beside the values
[4] = system: Erysiphe necator; experiment: Antifungal activity against powdery mildew Erysiphe necator assessed as reduction in fungal growth; assay type: functional; set-up: concentration or dose not given beside the values
[5] = system: Phytophthora; experiment: Antimicrobial activity against Phytophthora assessed as reduction in microbial growth; assay type: functional; set-up: concentration or dose not given beside the values
[6] = system: Botrytis cinerea; experiment: Antifungal activity against gray mold Botrytis cinerea assessed as reduction in fungal growth; assay type: functional; set-up: concentration or dose not given beside the values
[7] = system: Rhizoctonia solani; experiment: Antifungal activity against Rhizoctonia solani at 150 uM; assay type: functional, organism-based
[8] = target: Dopamine receptors; D2 & D4 (Homo sapiens, UniProt P14416+P21917); experiment: Binding affinity to human D2/D4 receptor assessed as inhibition constant; assay type: protein assay
[9] = target: T1, D(4) dopamine receptor (Homo sapiens) (UniProt P21917); experiment: Inhibition of human D4 receptor
T1 sequence (whole entry): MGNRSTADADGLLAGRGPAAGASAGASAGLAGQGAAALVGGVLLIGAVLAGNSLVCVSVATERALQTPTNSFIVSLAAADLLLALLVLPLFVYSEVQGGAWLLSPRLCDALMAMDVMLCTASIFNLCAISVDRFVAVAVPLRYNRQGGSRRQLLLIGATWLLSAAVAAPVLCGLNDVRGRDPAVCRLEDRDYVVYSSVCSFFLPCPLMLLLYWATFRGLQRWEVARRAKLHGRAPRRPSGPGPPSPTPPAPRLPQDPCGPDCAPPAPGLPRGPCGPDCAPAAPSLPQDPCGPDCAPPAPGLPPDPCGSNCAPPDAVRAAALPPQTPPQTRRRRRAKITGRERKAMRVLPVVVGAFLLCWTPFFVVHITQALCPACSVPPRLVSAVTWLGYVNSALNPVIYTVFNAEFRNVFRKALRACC

[10] = Antioxidant activity assessed as DPPH radical scavenging activity; assay type: functional
[11] = system: Staphylococcus aureus; experiment: Antibacterial activity against Staphylococcus aureus assessed as zone of inhibition; assay type: functional
[12] = system: Bacillus cereus; experiment: Antibacterial activity against Bacillus cereus assessed as zone of inhibition; assay type: functional
[13] = system: Serratia marcescens; experiment: Antibacterial activity against Serratia marcescens assessed as zone of inhibition; assay type: functional
[14] = system: Proteus mirabilis; experiment: Antibacterial activity against Proteus mirabilis assessed as zone of inhibition; assay type: functional
[15] = system: Aspergillus ochraceus; experiment: Antifungal activity against Aspergillus ochraceus assessed as zone of inhibition; assay type: functional
[16] = system: Penicillium chrysogenum; experiment: Antifungal activity against Penicillium chrysogenum assessed as zone of inhibition; assay type: functional
[17] = system: Botrytis cinerea; experiment: Antifungal activity against Botrytis cinerea; assay type: functional, organism-based
[18] = system: Bacillus subtilis; experiment: Antibacterial activity against Bacillus subtilis assessed as zone of inhibition; assay type: functional
[19] = system: Pseudomonas aeruginosa; experiment: Antibacterial activity against Pseudomonas aeruginosa assessed as zone of inhibition; assay type: functional
[20] = system: Escherichia coli; experiment: Antibacterial activity against Escherichia coli assessed as zone of inhibition; assay type: functional
[21] = system: Klebsiella aerogenes; experiment: Antibacterial activity against Enterobacter aerogenes assessed as zone of inhibition; assay type: functional
[22] = Antiproliferative activity against human U87 cells assessed as reduction in cell viability by MTT assay; assay type: functional, cell-based, U-87MG ATCC; conditions: U-87 MG
[23] = system: Aspergillus niger; experiment: Antifungal activity against Aspergillus niger assessed as zone of inhibition; assay type: functional
[24] = system: Penicillium italicum; experiment: Antifungal activity against Penicillium italicum assessed as zone of inhibition; assay type: functional
[25] = system: Fusarium oxysporum; experiment: Antifungal activity against Fusarium oxysporum assessed as zone of inhibition; assay type: functional
[26] = system: Ehrlich; experiment: cells; conditions: Mus musculus
Description: Anticancer activity against mouse EAC cells assessed as reduction in cell viability

CC(=O)N1C(c2ccccc2)Cc2c(c(=O)oc3cc(C)ccc23)C1c1ccccc1 (stereo not drawn)
Activity [1]: 18%
Activity [2]: 10%
Activity [3]: 0%
Activity [4]: 52%
Activity [5]: 83%
Activity [6]: 11%

COc1ccc2c(c1)oc(=O)c1c(C)coc12
EC50 [7]: 3.57 mg/L (≈ 15.5 µM)

COc1ccc(CN2CCc3c(c(=O)oc4cc(OC)ccc34)C2)cc1
Ki [8]: 0.069 µM

COc1cc2c(cc1OC)C1CCN(CCN3CC4CCC(CC4)C3)CC1C(=O)O2 (stereo not drawn)
ID50 [9]: 0.113 mg/kg

CN1CCN(Cc2[se]c3c(=O)oc4ccccc4c3c2Br)CC1
pIC50 [10]: 4.06

COc1ccc2c3c(c(=O)oc2c1)CN(Cc1ccc(Cl)cc1)CC3
Ki [8]: 0.667 µM

CC1c2c(c3ccccc3oc2=O)Oc2ncn3nc(-c4ccccc4)nc3c21 (stereo not drawn)
inhibition zone (IZ) [11]: 20 mm
inhibition zone (IZ) [12]: 22 mm
inhibition zone (IZ) [13]: 20 mm
inhibition zone (IZ) [14]: 19 mm
inhibition zone (IZ) [15]: 19 mm
inhibition zone (IZ) [16]: 17 mm

CCOc1ccc2c(c1)oc(=O)c1c(C)coc12
EC50 [7]: 8.87 mg/L (≈ 36.3 µM)

C=CCOc1ccc2c(c1)oc(=O)c1c(C)c(C)oc12
EC50 [17]: 1.72 mg/L (≈ 6.36 µM)

COc1ccc(C2SCCNc3c2c(=O)oc2cc(O)ccc32)c(O)c1 (stereo not drawn)
pIC50 [10]: 3.92

COc1ccc2c3c(c(=O)oc2c1)CN(CCc1ccccc1)CC3
Ki [8]: 0.734 µM

CC1(C)S[C@@H]2[C@H](NC(=O)[C@H](N)c3ccc(O)cc3)C(=O)N2[C@H]1C(=O)O [AMOXICILLIN]
inhibition zone (IZ) [11]: 29 mm
inhibition zone (IZ) [18]: 12 mm
inhibition zone (IZ) [12]: 20 mm
inhibition zone (IZ) [19]: 11 mm
inhibition zone (IZ) [20]: 36 mm
inhibition zone (IZ) [21]: 10 mm

O=NN(CCCl)C(=O)NCCCl [CARMUSTINE]
IC50 [22]: 3.9 mg/L

O=c1[nH]cnc2c1C(c1ccc(Br)cc1)c1c(c3ccccc3oc1=O)O2 (stereo not drawn)
inhibition zone (IZ) [11]: 22 mm
inhibition zone (IZ) [18]: 18 mm
inhibition zone (IZ) [12]: 16 mm
inhibition zone (IZ) [19]: 10 mm
inhibition zone (IZ) [20]: 13 mm
inhibition zone (IZ) [21]: 12 mm
inhibition zone (IZ) [23]: 21 mm
inhibition zone (IZ) [24]: 12 mm
inhibition zone (IZ) [25]: 20 mm

N#CC1=C(N)Oc2c(c(=O)oc3ccc(Br)cc23)C12C(=O)Nc1ccccc12 (stereo not drawn)
pIC50 [22]: 4.11

O=c1oc2ccccc2c2nc(-c3ccccc3)cc(-c3ccc([N+](=O)[O-])cc3)c12
pIC50 [26]: 6.92

COc1ccc2c3c(c(=O)oc2c1)CN(Cc1ccccc1Cl)CC3
Ki [8]: 0.171 µM

CC1C(C#N)=C(N)Oc2c1c(=O)oc1ccccc21 (stereo not drawn)
inhibition zone (IZ) [11]: 18 mm
inhibition zone (IZ) [12]: 19 mm
inhibition zone (IZ) [13]: 18 mm
inhibition zone (IZ) [14]: 20 mm
inhibition zone (IZ) [15]: 16 mm
inhibition zone (IZ) [16]: 18 mm

O=c1oc2ccccc2c2nc3c(c(-c4ccccc4)c12)CCC/C3=C\c1ccccc1
pIC50 [26]: 6.89

COc1ccc2c(c1)OC(=O)C1CN(CCN3CC4CCC(CC4)C3)CCC21 (stereo not drawn)
ID50 [9]: 0.035 mg/kg

Cc1ccc2c3c(c(=O)oc2c1)CN(Cc1ccc(F)cc1)CC3
Ki [8]: 0.773 µM

CC1C2=C(N=CNC2N)Oc2c1c(=O)oc1ccccc21 (stereo not drawn)
inhibition zone (IZ) [11]: 21 mm
inhibition zone (IZ) [12]: 22 mm
inhibition zone (IZ) [13]: 20 mm
inhibition zone (IZ) [14]: 19 mm
inhibition zone (IZ) [15]: 14 mm
inhibition zone (IZ) [16]: 12 mm

CC1c2c(c3ccccc3oc2=O)Oc2ncn3nc(CCl)nc3c21 (stereo not drawn)
inhibition zone (IZ) [11]: 20 mm
inhibition zone (IZ) [12]: 22 mm
inhibition zone (IZ) [13]: 21 mm
inhibition zone (IZ) [14]: 20 mm
inhibition zone (IZ) [15]: 18 mm
inhibition zone (IZ) [16]: 19 mm

O=c1oc2ccccc2c2nc(/C=C/c3ccccc3)cc(-c3ccccc3)c12
pIC50 [26]: 6.92

COc1ccc2c3c(c(=O)oc2c1)CN(Cc1ccc(Cl)c(Cl)c1)CC3
Ki [8]: 0.095 µM
